For assay [1], the target named is T1, GST-tagged Tankyrase-2 (873-1166 aa) (Homo sapiens, UniProt Q9H2K2).
T1 construct: GST-tagged Tankyrase-2 (873-1166 aa)
Briefly: Tankyrase 2 autoparsylation HTRF enzyme assay. It is filed as biochemical. As to conditions: read-out: IC50 TNKS2 enzyme assay. Here is the method:
Biochemical activity testing of Tankyrase 1 and 2: Autoparsylation assay
The autoparsylation assay is run in two steps: the enzymatic reaction in which GST-tagged Tankyrase-1, resp Tankyrase-2 transferred biotinylated ADP-ribose to itself from biotinylated NAD as co-substrate and the detection reaction where a time resolved FRET between cryptate labelled anti-GST bound to the GST tag of the enzyme and Xlent® labelled-streptavidin bound the biotin-parsylation residue is analysed. The autoparsylation activity was detectable directly via the increase in HTRF signal.
The autoparsylation assay is performed as 384-well HTRF® (Cisbio, Codolet, France) assay format in Greiner low volume nb 384-well microtiter plates and is used for high throughput screen. 250 nM GST-tagged Tankyrase-1 (1023-1327 aa), respectively about 250 nM GST-tagged Tankyrase-2 (873-1166 aa) and 5 μM bio-NAD (Biolog, Life science Inst., Bremen, Germany) as co-substrate are incubated in a total volume of 5 μl (50 mM HEPES, 4 mM Mg-chloride, 0.05% Pluronic F-68, 1.4 mM DTT, 0.5% DMSO, pH 7.7) in the absence or presence of the test compound (10 dilution concentrations) for 90 min at 30° C. The reaction is stopped by the addition of 1 μl 50 mM EDTA solution. 2 μl of the detection solution (1.6 μM SA-Xlent® (Cisbio, Codolet, France), 7.4 nM Anti-GST-K® (Eu-labelled anti-GST, Cisbio, Codolet, France) in 50 mM HEPES, 800 mM KF, 0.1% BSA, 20 mM EDTA, 0.1% CHAPS, pH 7.0) are added. After 1 h incubation at room temperature the HTRF is measured with an Envision multimode reader (Perkin Elmer LAS Germany GmbH) at excitation wavelength 340 nm (laser mode) and emission wavelengths 615 nm and 665 nm. The ratio of the emission signals is determined. The full value used is the inhibitor-free reaction. The pharmacological zero value used is XAV-939 (Tocris) in a final concentration of 5 μM. The inhibitory values (IC50) are determined using either the program Symyx Assay Explorer® or Condosseo® from GeneData.
(In TR-FRET formats the signal depends on donor and acceptor labels being close together.)

The test system of another assay is Tankyrase. Description: Cellular inhibition of Tankyrase: Axin2 level in DLD1 cells (Luminex). In kind it is cell-based. As to conditions: 24 hours, Axin2 increase, read-out: EC50 [M] TNKS cellular assay. The essentials: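 DLD1 colon carcinoma cells treated 24 h with seven-step serial dilutions in triplicate (0.3% DMSO final). Axin2 in cleared lysates captured on anti-Axin2 beads, detected with polyclonal anti-Axin2 plus PE secondary, and quantified by Luminex. EC50 from data normalized to solvent control; IWR-2 (3E-06 M) marks maximal Axin2 increase.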

Assay [2] addresses T2, GST-tagged Tnks-1 (1023-1327 aa) (Homo sapiens, UniProt O95271).
T2 construct: GST-tagged Tnks-1 (1023-1327 aa, prepared in-house); made in house
Description: TNKS1 activity ELISA (autoparsylation assay). It is filed as biochemical. The essentials:
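Each GST-tagged enzyme (20 ng/well) was captured overnight at 4 °C on glutathione plates, then auto-ADP-ribosylated with 10 μM biotin-NAD for 1 h at 30 °C, pH 7.7, 0.5% DMSO, compound at 10 concentrations. Streptavidin-HRP chemiluminescence measured the signal. IC50 relative to inhibitor-free reaction, with 5 μM XAV-939 defining zero.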
(In general: ELISA stands for enzyme-linked immunosorbent assay.)

pIC50: −log10 of the molar value.

Data on 21 compounds can be found in patent publication US9770446B2, “Piperidine urea derivatives” (MERCK PATENT GMBH, priority 2013, dated 2017).

T2 sequence (O95271 1023-1327): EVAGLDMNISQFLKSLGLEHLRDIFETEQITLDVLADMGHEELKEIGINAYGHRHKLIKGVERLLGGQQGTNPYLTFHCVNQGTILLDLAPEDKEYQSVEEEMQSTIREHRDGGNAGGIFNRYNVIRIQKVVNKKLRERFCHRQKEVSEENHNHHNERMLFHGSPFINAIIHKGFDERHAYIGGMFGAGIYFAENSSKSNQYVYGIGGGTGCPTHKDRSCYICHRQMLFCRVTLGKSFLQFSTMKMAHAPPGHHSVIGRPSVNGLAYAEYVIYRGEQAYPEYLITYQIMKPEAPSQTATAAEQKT
T1 sequence (Q9H2K2 873-1166): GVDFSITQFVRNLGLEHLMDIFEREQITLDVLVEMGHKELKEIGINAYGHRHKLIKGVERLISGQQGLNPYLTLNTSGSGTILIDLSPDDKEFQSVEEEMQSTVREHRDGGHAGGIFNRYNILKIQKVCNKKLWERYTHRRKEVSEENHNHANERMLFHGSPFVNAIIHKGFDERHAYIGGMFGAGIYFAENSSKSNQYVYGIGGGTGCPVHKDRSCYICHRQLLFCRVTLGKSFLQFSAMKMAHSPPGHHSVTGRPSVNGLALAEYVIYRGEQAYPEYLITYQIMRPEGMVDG

By pIC50 is commonly meant the negative decadic logarithm of the IC50, by convention in mol/L. What is called EC50 is the concentration needed to bring the measured effect to its halfway point. The term IC50 denotes the concentration that gives 50% inhibition. Lower therefore signals greater potency. As for `Cc1cccc(N(C)C(=O)N2CCC(C(=O)c3ccccc3)CC2)c1` [Compound A1, 4-benzoyl-piperidine-1-carboxylic acid methyl-m-tolyl-amide], in assay [1], the pIC50 was 5.52 to 6.52. In addition, the EC50 with Tankyrase was 3e-07 to 3e-06 M. Also, in assay [2], the IC50 is under 300 nM.
Consider `Cc1ccc(N(C)C(=O)N2CCC(C(=O)c3ccccc3)CC2)cc1` [Compound A2, 4-benzoyl-piperidine-1-carboxylic acid methyl-p-tolyl-amide], for which the pIC50 in assay [1] was 5.52 to 6.52. Besides, the EC50 in the assay on Tankyrase was 3e-07 to 3e-06 M. This compound also came in with an IC50 in assay [2] of under 300 nM.
On to `COc1ccc(N(C)C(=O)N2CCC(C(=O)c3ccccc3)CC2)cc1` [Compound A4, 4-benzoyl-piperidine-1-carboxylic acid (4-methoxy-phenyl)-methyl-amide], for which the pIC50 in assay [1] is 5.52 to 6.52. In addition, the EC50 in the assay on Tankyrase is 3e-07 to 3e-06 M. This compound registered an IC50 in assay [2] of under 300 nM.
On to `COc1ccc(N(C)C(=O)N2CCC(C(=O)c3ccc(C)cc3)CC2)cc1` [Compound A5, 4-(4-methyl-benzoyl)-piperidine-1-carboxylic acid (4-methoxy-phenyl)-methylamide], for which the pIC50 in assay [1] was 5.52 to 6.52. For the same compound, the EC50 with Tankyrase was under 3e-07 M. Moreover, the IC50 in assay [2] is under 300 nM.
On to `COc1ccc(C(=O)C2CCN(C(=O)N(C)c3ccc(OC)cc3)CC2)cc1` [Compound A6, 4-(4-methoxy-benzoyl)-piperidine-1-carboxylic acid (4-methoxy-phenyl)methyl-amide], for which, in assay [1], the negative logarithm of the IC50 (pIC50) was 5.52 to 6.52. In the assay with Tankyrase, the half-maximal effective concentration (EC50) is under 3e-07 M. The same compound came in with an IC50 in assay [2] of under 300 nM.
Turning to `COc1ccc(N(C)C(=O)N2CCC(C(=O)c3cccc(F)c3)CC2)cc1` [Compound A7, 4-(3-fluoro-benzoyl)-piperidine-1-carboxylic acid (4-methoxy-phenyl)-methylamide], the pIC50 in assay [1] was 5.52 to 6.52. Also, the EC50 in the assay on Tankyrase was 3e-07 to 3e-06 M. Besides, the IC50 in assay [2] was under 300 nM.
With `COc1ccc(N(C)C(=O)N2CCC(C(=O)c3ccc(F)cc3)CC2)cc1` [Compound A8, 4-(4-fluoro-benzoyl)-piperidine-1-carboxylic acid (4-methoxy-phenyl)-methylamide], in assay [1], the pIC50 was 5.52 to 6.52. For the same compound, the EC50 in the assay with Tankyrase is under 3e-07 M. Further, the IC50 in assay [2] was under 300 nM.
The like results for `CN(C(=O)N1CCC(C(=O)c2ccccc2)CC1)c1ccc(F)cc1` [Compound A13, 4-benzoyl-piperidine-1-carboxylic acid (4-fluoro-phenyl)-methyl-amide] were, in that order, 5.52 to 6.52, 3e-07 to 3e-06 M and under 300 nM.
For the compound `CCN(C(=O)N1CCC(C(=O)c2ccccc2)CC1)c1ccc(OC)cc1` [Compound A14, 4-benzoyl-piperidine-1-carboxylic acid ethyl-(4-methoxy-phenyl)-amide], the pIC50 in assay [1] is 5.52 to 6.52. Further, in the assay on Tankyrase, the EC50 was under 3e-07 M. Further, the IC50 in assay [2] is under 300 nM.
On to `COc1ccc(N(CCO)C(=O)N2CCC(C(=O)c3ccccc3)CC2)cc1` [Compound A15, 4-benzoyl-piperidine-1-carboxylic acid (2-hydroxy-ethyl)-(4-methoxy-phenyl)amide], for which the pIC50 in assay [1] is 5.52 to 6.52. Besides, the EC50 in the assay on Tankyrase was in the range of 3e-07 to 3e-06 M. This compound also gave an IC50 in assay [2] of under 300 nM.
In the same order, the values of `O=C(c1ccccc1)C1CCN(C(=O)N2CCc3ccccc32)CC1` [Compound A16, (4-benzoyl-piperidin-1-yl)-(2,3-dihydro-indol-1-yl)-methanone] are 5.52 to 6.52, 3e-06 to 5e-05 M and under 300 nM.
As for `Cc1ccc(C(=O)C2CCN(C(=O)N3CCc4ccccc43)CC2)cc1` [Compound A17, (2,3-dihydro-indol-1-yl)-[4-(4-methyl-benzoyl)-piperidin-1-yl]-methanone], the pIC50 in assay [1] was 5.52 to 6.52. In the assay with Tankyrase, the EC50 was 3e-07 to 3e-06 M. Further, in assay [2], the IC50 is under 300 nM.
In the same order, the values of `COc1ccc(C(=O)C2CCN(C(=O)N3CCc4ccccc43)CC2)cc1` [Compound A18, (2,3-dihydro-indol-1-yl)-[4-(4-methoxy-benzoyl)-piperidin-1-yl]-methanone] are 5.52 to 6.52, 3e-07 to 3e-06 M and under 300 nM.
With `CCN(C(=O)N1CCC(C(=O)c2ccc(OC)c(C)c2)CC1)c1ccc(OC)cc1` [Compound A24, 4-(4-methoxy-3-methyl-benzoyl)-piperidine-1-carboxylic acid ethyl-(4-methoxy-phenyl)-amide], the pIC50 in assay [1] is 5.52 to 6.52. Further, in the assay on Tankyrase, the EC50 was under 3e-07 M. The compound also yielded an IC50 in assay [2] of under 300 nM.
Take `COc1ccc(N(C)C(=O)N2CCC(C(=O)c3cccc(C)c3)CC2)cc1` [Compound A25, 4-(3-methyl-benzoyl)-piperidine-1-carboxylic acid (4-methoxy-phenyl)methyl-amide]: the pIC50 in assay [1] was 5.52 to 6.52. For the same compound, the EC50 in the assay on Tankyrase was under 3e-07 M. The same compound showed an IC50 in assay [2] of under 300 nM.
For `CCN(C(=O)N1CCC(C(=O)c2cccc(C)c2)CC1)c1ccc(OC)cc1` [Compound A26, 4-(3-methyl-benzoyl)-piperidine-1-carboxylic acid ethyl-(4-methoxy-phenyl)amide], the pIC50 in assay [1] was 5.52 to 6.52. The EC50 in the assay with Tankyrase was under 3e-07 M. Also, the IC50 in assay [2] is under 300 nM.
As to `COc1ccc(N(C)C(=O)N2CCC(C(=O)c3cccc(OC)c3)CC2)cc1` [Compound A27, 4-(3-methoxy-benzoyl)-piperidine-1-carboxylic acid (4-methoxy-phenyl)methyl-amide], the pIC50 in assay [1] is 5.52 to 6.52. The EC50 in the assay on Tankyrase is under 3e-07 M. In assay [2], this compound had an IC50 of under 300 nM.
For the compound `CCN(C(=O)N1CCC(C(=O)c2cccc(OC)c2)CC1)c1ccc(OC)cc1` [Compound A28, 4-(3-methoxy-benzoyl)-piperidine-1-carboxylic acid ethyl-(4-methoxy-phenyl)amide], the pIC50 in assay [1] is over 6.52. Moreover, the EC50 with Tankyrase was under 3e-07 M. Moreover, in assay [2], the IC50 was under 300 nM.
Take `COc1ccc(N(C)C(=O)N2CCC(C(=O)c3ccc(OC)c(F)c3)CC2)cc1` [Compound A29, 4-(3-fluoro-4-methoxy-benzoyl)-piperidine-1-carboxylic acid (4-methoxy-phenyl)-methyl-amide]: the pIC50 in assay [1] was 5.52 to 6.52. In addition, the EC50 in the assay with Tankyrase was under 3e-07 M. The same compound showed an IC50 in assay [2] of under 300 nM.
With `CN(C(=O)N1CCC(C(=O)c2ccc(NS(C)(=O)=O)cc2)CC1)c1ccccc1` [Compound A38, 4-(4-methanesulfonylamino-benzoyl)-piperidine-1-carboxylic acid methyl-phenyl-amide], the pIC50 in assay [1] is 5.52 to 6.52. Moreover, the EC50 with Tankyrase was 3e-07 to 3e-06 M. In assay [2], the IC50 was under 300 nM.
In the same order, the values of `CCOC(=O)CN(C(=O)N1CCC(C(=O)c2ccc(OC)cc2)CC1)c1ccccc1` [Compound A40, {[4-(4-methoxy-benzoyl)-piperidine-1-carbonyl]-phenyl-amino}-acetic acid ethyl ester] are 5.52 to 6.52, under 3e-07 M and under 300 nM.
